{
  "source": "ChEMBL document CHEMBL1201862",
  "about": "“PubChem BioAssay data set” (2004)",
  "key": {"[1]": {"target": "5-hydroxytryptamine receptor 2A (Mus musculus, UniProt P35363)", "type": "functional, cell-based"}, "[2]": {"target": "T1, Probable nicotinate-nucleotide adenylyltransferase (Staphylococcus aureus (strain N315), UniProt P65502)", "T1 sequence (P65502 whole entry)": "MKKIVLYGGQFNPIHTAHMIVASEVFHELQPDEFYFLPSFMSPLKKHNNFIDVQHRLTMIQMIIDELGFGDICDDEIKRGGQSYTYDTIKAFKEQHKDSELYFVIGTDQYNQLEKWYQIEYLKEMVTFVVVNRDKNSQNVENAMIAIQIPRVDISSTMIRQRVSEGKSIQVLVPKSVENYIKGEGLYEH", "type": "functional, Staphylococcus aureus subsp. aureus N315", "conditions": "read-out: IC50_Mean"}, "[3]": {"target": "T1, Probable nicotinate-nucleotide adenylyltransferase", "type": "functional, Staphylococcus aureus subsp. aureus N315"}, "Streptococcus": {"system": "Streptococcus", "assay": "Group A Streptococcus viability loss, dose response, counter-screen for streptokinase expression inhibitor project, luminescence, BacTiterGlo (AID 1915);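 note: potency for reduction of bacterial viability or growth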", "type": "functional, organism-based"}, "Aminopeptidase N": {"target": "T2, Aminopeptidase N (Plasmodium falciparum FcB1/Columbia, UniProt O96935)", "T2 sequence (O96935 whole entry)": "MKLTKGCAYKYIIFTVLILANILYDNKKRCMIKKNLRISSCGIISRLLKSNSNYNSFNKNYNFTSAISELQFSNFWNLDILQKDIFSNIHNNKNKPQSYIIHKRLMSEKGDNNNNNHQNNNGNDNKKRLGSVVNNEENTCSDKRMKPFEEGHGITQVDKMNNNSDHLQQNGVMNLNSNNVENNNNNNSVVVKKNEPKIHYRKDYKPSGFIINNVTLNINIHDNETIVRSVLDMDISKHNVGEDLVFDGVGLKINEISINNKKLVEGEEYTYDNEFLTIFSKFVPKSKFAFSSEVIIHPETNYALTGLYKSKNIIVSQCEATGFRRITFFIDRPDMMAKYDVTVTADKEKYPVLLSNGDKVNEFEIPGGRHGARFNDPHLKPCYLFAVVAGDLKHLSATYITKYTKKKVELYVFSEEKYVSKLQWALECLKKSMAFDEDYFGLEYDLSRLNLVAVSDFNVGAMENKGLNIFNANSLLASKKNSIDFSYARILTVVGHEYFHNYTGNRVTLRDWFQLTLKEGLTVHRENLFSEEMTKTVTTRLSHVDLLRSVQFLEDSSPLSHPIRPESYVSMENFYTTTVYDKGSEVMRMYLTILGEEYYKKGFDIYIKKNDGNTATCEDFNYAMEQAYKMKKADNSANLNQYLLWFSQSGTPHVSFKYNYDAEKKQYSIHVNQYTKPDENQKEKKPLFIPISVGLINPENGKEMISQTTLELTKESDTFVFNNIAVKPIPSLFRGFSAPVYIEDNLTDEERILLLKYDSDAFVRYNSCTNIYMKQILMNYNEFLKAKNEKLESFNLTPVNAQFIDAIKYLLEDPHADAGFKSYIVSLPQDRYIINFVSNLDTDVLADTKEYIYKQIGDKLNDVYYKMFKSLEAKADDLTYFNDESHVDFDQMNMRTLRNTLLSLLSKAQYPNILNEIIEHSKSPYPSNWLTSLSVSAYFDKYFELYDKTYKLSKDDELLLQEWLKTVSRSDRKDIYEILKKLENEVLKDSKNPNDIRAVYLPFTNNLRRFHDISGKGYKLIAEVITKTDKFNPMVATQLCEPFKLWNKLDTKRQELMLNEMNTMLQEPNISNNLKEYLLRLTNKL", "assay": "P. falciparum M1AAP inhibitors, biochemical, fluorogenic H-Leu-NHMec substrate, 1536-well (AID 1445)", "design": "species or system Plasmodium falciparum 3D7, 3D7"}, "[4]": {"system": "Streptococcus sp. 'group A'", "assay": "growth inhibition of control SK(-) GAS strain, dose response, counter-screen for streptokinase expression inhibitor project, luminescence, kanamycin, BacTiterGlo, confirmation (AID 1900)", "type": "functional, organism-based"}, "[5]": {"assay": "human group III sPLA2 inhibitors, dose response, biochemical, QFRET, IC50 (AID 743457);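 note: green fluorescence rise as the enzyme cleaves BODIPY PC-A2 in liposomes; potency for inhibition of the enzyme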"}, "[6]": {"target": "T3, Methionyl-tRNA synthetase, putative (Trypanosoma brucei brucei, UniProt Q38C91)", "T3 sequence (Q38C91 whole entry)": "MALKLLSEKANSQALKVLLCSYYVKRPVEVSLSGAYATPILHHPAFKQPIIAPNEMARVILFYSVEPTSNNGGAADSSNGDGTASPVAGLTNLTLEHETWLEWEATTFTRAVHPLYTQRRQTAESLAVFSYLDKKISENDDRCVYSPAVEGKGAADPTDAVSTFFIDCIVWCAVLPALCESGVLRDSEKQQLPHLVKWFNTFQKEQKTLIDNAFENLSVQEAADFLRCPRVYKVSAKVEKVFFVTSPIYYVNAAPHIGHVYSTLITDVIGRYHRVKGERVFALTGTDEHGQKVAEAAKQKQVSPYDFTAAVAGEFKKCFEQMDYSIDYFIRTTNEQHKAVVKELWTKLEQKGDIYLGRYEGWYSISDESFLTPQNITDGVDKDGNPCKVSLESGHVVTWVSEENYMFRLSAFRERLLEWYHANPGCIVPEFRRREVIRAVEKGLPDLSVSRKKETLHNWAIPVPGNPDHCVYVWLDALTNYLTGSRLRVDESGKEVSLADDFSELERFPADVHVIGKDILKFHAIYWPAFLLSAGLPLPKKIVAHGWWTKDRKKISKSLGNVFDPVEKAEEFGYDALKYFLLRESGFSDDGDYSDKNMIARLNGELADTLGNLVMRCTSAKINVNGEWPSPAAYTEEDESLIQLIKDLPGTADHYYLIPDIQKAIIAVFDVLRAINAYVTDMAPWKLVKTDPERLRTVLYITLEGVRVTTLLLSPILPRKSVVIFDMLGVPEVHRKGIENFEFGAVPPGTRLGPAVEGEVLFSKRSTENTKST", "type": "functional, Trypanosoma brucei brucei strain 927/4 GUTat10.1"}, "[7]": {"target": "T3, Methionyl-tRNA synthetase, putative", "type": "functional, Trypanosoma brucei brucei strain 927/4 GUTat10.1", "remark": "listed apart in the source"}, "[8]": {"assay": "Counterscreen for inhibitors of Trypanosoma brucei methionyl tRNA synthetase (MetRS): Luminescence-based cell-based high throughput dose response assay to identify compounds that are cytotoxic to Jurkat human T lymphocyte cells.", "type": "functional"}, "[9]": {"assay": "ADAM10 protease inhibitors, dose response, selectivity assay for ADAM17 exosite inhibitor project, biochemical, FRET peptide substrate, recombinant human ADAM10 (AID 743259);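 note: ADAM10 enzyme cleaving a FRET peptide substrate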"}, "[10]": {"target": "Disintegrin and metalloproteinase domain-containing protein 17 (Homo sapiens, UniProt P78536)", "assay": "exosite inhibitors of ADAM17, dose response, biochemical (AID 743260)"}, "Fatty acid synthase": {"target": "Fatty acid synthase (Homo sapiens, UniProt P49327)", "sequence (P49327 whole entry, the tested form may be a part)": "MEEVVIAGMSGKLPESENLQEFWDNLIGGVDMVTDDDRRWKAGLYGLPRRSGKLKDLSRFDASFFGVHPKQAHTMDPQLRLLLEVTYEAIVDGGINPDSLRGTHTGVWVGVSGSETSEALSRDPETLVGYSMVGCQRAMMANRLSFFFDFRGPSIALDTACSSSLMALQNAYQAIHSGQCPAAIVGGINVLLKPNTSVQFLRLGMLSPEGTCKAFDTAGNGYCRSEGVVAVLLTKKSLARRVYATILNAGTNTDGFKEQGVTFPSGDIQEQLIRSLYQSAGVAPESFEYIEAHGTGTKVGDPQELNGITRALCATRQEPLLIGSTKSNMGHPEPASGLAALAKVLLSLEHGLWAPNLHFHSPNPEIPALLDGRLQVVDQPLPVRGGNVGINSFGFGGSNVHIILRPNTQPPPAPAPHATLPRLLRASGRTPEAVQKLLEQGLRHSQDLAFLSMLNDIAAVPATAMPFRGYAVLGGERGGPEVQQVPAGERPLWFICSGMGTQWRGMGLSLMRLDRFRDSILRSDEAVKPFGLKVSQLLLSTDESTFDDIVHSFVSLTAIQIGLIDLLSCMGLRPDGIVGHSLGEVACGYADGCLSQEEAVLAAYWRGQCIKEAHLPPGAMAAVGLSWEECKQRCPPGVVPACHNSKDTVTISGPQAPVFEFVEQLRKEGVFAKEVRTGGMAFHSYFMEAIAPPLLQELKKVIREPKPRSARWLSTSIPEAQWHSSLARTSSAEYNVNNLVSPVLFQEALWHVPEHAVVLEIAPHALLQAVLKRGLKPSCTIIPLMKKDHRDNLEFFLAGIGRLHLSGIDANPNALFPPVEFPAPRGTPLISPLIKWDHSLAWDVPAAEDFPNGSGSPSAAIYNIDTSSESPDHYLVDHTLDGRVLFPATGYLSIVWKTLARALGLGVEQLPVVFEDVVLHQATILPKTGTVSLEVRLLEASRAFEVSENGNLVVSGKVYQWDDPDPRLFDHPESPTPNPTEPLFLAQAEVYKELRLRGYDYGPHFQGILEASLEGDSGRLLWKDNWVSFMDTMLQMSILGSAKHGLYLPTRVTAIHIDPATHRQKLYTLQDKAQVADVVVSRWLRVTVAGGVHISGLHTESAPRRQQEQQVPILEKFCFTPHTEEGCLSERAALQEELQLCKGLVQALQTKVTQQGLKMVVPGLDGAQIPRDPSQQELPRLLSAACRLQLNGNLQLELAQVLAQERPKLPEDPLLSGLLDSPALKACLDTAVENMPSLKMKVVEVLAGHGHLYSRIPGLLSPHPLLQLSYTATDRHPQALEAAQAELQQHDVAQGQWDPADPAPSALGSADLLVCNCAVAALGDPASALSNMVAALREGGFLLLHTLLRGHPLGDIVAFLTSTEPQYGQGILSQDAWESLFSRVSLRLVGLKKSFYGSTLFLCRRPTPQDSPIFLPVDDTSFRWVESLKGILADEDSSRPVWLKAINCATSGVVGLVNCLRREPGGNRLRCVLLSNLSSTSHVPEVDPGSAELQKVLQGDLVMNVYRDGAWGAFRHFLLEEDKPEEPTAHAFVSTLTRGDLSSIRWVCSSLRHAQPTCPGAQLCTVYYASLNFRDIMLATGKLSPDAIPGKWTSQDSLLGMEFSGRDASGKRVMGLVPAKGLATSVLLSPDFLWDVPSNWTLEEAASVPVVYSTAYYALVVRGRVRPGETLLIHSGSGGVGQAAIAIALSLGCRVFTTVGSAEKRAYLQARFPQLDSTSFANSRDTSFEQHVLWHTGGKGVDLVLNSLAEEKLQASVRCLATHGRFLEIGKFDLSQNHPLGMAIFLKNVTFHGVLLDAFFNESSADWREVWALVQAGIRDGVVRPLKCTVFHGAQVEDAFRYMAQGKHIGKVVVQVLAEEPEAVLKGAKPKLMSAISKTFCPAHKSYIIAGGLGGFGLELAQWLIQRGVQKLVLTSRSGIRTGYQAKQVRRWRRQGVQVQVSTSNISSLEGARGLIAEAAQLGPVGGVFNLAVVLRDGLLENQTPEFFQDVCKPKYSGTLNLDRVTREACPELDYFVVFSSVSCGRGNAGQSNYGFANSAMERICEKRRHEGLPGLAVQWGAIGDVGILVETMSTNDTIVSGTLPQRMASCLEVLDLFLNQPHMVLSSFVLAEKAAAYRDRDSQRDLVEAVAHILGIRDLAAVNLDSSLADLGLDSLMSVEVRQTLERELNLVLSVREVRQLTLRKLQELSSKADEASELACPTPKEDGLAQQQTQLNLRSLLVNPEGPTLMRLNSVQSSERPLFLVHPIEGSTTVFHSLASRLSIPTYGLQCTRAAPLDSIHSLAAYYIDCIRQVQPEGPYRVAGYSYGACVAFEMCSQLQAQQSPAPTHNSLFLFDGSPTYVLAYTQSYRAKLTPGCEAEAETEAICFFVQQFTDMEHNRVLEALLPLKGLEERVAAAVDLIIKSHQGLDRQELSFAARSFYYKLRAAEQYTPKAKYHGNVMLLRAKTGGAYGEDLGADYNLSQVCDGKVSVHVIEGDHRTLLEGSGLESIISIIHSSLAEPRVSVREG", "assay": "FAS thioesterase domain inhibitors, dose response, biochemical, kinetic fluorescence intensity (AID 624326);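 note: rate of fluorescence rise from hydrolysis of a fluorogenic O-methyl fluorescein ester substrate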", "type": "functional"}, "[11]": {"assay": "HepG2 cell cytotoxicity, dose response, cytotoxicity control, ATP luminescence, cherry-pick, activator set 2 (AID 1053143)", "type": "functional, cell-based"}, "[12]": {"assay": "microbe, parasite or virus in culture", "type": "functional", "conditions": "Mycobacterium tuberculosis"}, "cells": {"assay": "cells", "type": "functional"}, "[13]": {"target": "T4, Small ubiquitin-related modifier 1 (Homo sapiens, UniProt P63165)", "T4 sequence (P63165 whole entry)": "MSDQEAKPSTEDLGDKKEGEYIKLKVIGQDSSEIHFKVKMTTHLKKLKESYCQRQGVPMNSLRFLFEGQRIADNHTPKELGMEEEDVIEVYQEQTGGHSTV", "assay": "inhibitors of SUMO1 peptide binding, dose response, biochemical, fluorescence polarization, uHTS hits (AID 624382)", "type": "functional", "conditions": "read-out: IC50_Mean"}, "[14]": {"target": "T4, Small ubiquitin-related modifier 1", "assay": "inhibitors of SUMO1 partner interactions, dose response, biochemical, FRET (AID 624383)", "type": "functional", "conditions": "read-out: IC50_Mean"}, "[15]": {"target": "Photoreceptor-specific nuclear receptor (Homo sapiens, UniProt Q9Y5X4)", "assay": "NR2E3 inverse agonists, dose response, biochemical, TR-FRET (AID 463256)", "type": "functional"}, "[16]": {"target": "Peroxisome proliferator-activated receptor gamma/Nuclear receptor corepressor 2 (Homo sapiens, UniProt P37231+Q9Y618)", "assay": "Counterscreen for NR2E3 inverse agonists: TR-FRET-based biochemical high throughput dose response assay to identify inverse agonists of the interaction between peroxisome proliferator-activated receptor gamma (PPARg) and nuclear receptor co-repressor 2 (NCOR2).", "type": "functional"}, "[17]": {"assay": "cytotoxicity in HEK-293T cells, dose response, cytotoxicity control for TCR NF-kB inhibitor project, luminescence, T-cell screen hits (AID 489026);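 note: cells exposed to compound about 14 hours before the viability readout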", "type": "functional, cell-based"}, "[18]": {"assay": "Counterscreen for activators of the function of SWI/SNF related, matrix associated, actin dependent regulator of chromatin, subfamily a, member 2 (SMARCA2, BRM): Luminescence-based cell-based high throughput dose response assay to identify non-selective compounds using the VP16 reporter assay.", "type": "functional"}, "[19]": {"target": "SWI/SNF-related matrix-associated actin-dependent regulator of chromatin subfamily A member 2 (Homo sapiens, UniProt P51531)", "sequence (P51531 whole entry)": "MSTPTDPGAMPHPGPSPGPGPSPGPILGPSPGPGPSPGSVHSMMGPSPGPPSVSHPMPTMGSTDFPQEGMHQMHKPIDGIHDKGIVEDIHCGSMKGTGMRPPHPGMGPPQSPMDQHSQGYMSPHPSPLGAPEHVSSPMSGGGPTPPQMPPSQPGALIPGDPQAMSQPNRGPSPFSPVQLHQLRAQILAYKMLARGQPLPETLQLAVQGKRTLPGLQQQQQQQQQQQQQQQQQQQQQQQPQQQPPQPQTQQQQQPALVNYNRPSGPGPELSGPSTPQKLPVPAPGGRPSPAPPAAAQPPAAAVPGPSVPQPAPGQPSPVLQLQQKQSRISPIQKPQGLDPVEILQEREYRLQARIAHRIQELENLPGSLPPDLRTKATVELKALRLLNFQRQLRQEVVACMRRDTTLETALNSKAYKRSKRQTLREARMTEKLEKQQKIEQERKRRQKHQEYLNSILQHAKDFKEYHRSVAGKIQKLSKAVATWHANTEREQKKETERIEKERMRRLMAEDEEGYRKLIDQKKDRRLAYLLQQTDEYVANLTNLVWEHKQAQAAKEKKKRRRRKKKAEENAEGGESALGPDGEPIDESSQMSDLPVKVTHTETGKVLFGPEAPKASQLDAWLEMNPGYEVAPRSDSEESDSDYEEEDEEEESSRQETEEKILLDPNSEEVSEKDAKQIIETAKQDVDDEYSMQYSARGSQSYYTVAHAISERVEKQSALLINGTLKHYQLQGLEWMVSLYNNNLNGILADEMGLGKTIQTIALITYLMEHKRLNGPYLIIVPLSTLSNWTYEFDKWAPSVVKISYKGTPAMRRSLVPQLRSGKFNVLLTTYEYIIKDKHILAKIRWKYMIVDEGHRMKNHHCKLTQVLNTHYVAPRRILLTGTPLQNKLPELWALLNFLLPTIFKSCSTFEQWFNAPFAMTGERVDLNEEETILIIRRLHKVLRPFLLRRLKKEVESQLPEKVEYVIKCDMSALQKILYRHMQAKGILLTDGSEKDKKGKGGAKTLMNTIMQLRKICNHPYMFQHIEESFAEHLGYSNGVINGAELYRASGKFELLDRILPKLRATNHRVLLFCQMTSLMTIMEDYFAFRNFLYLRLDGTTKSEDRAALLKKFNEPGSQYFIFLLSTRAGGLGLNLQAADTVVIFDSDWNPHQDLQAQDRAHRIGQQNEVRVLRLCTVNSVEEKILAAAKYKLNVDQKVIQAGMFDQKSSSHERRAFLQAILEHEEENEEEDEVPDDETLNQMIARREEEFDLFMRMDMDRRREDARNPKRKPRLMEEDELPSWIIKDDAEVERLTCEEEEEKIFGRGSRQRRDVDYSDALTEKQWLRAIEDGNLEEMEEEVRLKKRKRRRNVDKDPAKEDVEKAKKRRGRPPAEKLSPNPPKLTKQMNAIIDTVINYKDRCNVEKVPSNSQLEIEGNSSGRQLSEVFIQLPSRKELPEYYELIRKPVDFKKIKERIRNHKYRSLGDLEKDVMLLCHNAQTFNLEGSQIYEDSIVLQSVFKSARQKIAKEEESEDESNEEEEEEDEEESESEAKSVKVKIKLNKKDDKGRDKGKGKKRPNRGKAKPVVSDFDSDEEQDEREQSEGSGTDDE", "assay": "Luminescence-based cell-based high throughput dose response assay to identify activators of the function of SWI/SNF related, matrix associated, actin dependent regulator of chromatin, subfamily a, member 2 (SMARCA2, BRM).", "type": "functional"}, "[20]": {"assay": "HEp-2 cell cytotoxicity, dose response, cytotoxicity control for RSV inhibitor project, HTS (AID 2410)", "type": "functional", "conditions": "human respiratory syncytial virus"}, "[21]": {"target": "ADP-ribosylation factor GTPase-activating protein 1 (Rattus norvegicus, UniProt Q62848)", "sequence (Q62848 whole entry)": "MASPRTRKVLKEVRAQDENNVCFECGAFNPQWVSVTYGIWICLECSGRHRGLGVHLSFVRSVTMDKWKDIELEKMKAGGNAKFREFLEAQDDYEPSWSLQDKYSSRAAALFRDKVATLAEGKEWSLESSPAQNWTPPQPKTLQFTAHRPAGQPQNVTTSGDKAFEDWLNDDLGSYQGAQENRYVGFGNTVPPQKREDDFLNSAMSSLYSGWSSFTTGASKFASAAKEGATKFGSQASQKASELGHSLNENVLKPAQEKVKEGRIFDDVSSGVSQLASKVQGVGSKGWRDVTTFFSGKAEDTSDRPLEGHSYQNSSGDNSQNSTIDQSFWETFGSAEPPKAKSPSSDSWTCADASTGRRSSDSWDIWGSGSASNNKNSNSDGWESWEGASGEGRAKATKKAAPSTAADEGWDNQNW", "assay": "Fluorescence polarization-based biochemical high throughput dose response screening assay to identify inhibitors of ADP-ribosylation factor GTPase activating protein 1 (ARFGAP1).", "type": "functional"}},
  "note": "The source made the active and inactive calls.",
  "data": [
    {"smiles": "NC[C@H](O)c1ccc(O)c(O)c1", "note": "[NOREPINEPHRINE BITARTRATE]", "values": [
      {"measurement": "EC50", "setting": "[1]", "value": "0.806 µM (active)"}
    ]},
    {"smiles": "COc1ccc(NC(=O)CSc2nc(O)c3c(C(F)(F)F)cc(-c4cccs4)nc3n2)c(OC)c1", "values": [
      {"measurement": "IC50", "setting": "[2]", "value": "32.1 µM (active)"},
      {"measurement": "IC50", "setting": "[3]", "value": "4.89 µM (active)"},
      {"measurement": "EC50", "setting": "Streptococcus", "value": "124 µM (active)"},
      {"measurement": "IC50", "setting": "Aminopeptidase N", "value": "56.5 µM (active)"},
      {"measurement": "EC50", "setting": "[4]", "value": "11.6 µM (active)"}
    ]},
    {"smiles": "CN1/C(=C\\C(=O)Nc2ccc(F)cc2)C(C)(C)c2ccccc21", "values": [
      {"measurement": "IC50", "setting": "[5]", "value": "> 122 µM (inactive)"}
    ]},
    {"smiles": "O=C(NNC(=O)c1ccc(-n2cncn2)c([N+](=O)[O-])c1)c1ccccc1", "values": [
      {"measurement": "IC50", "setting": "[6]", "value": "32.3 µM (inactive)"},
      {"measurement": "IC50", "setting": "[7]", "value": "11.9 µM (inactive)"},
      {"measurement": "IC50", "setting": "[8]", "value": "83.3 µM (inactive)"}
    ]},
    {"smiles": "Cc1ccc(NC(=O)NNC(=O)Cn2nc(-c3ccccc3)c(-c3ccccc3)c(C#N)c2=O)cc1", "values": [
      {"measurement": "IC50", "setting": "[9]", "value": "> 69.5 µM (inactive)"},
      {"measurement": "IC50", "setting": "[10]", "value": "> 69.5 µM (inactive)"},
      {"measurement": "IC50", "setting": "Fatty acid synthase", "value": "4.64 µM (active)"}
    ]},
    {"smiles": "Oc1cc(NCc2cccnc2)ccc1-c1nc2ccccc2o1", "values": [
      {"measurement": "AC50", "setting": "[11]", "value": "26 µM (active)"},
      {"measurement": "CC50", "setting": "[12]", "value": "> 40 µM (active)"},
      {"measurement": "IC50", "setting": "cells", "value": "14.1 µM (active)"}
    ]},
    {"smiles": "C/C=C/C=C\\C(=O)Nc1cccc(C2=NOC3(C2)C[C@H](C(N)=O)N(C(=O)CC#N)C3)c1", "note": "(stereo partly specified)", "values": [
      {"measurement": "IC50", "setting": "[13]", "value": "> 66.6 µM (inactive)"},
      {"measurement": "IC50", "setting": "[14]", "value": "3.34 µM (active)"}
    ]},
    {"smiles": "CC1(C)Cc2c(sc(NC(=O)COc3cccc4ccccc34)c2C#N)C(C)(C)N1", "values": [
      {"measurement": "IC50", "setting": "[15]", "value": "8.84 µM (active)"},
      {"measurement": "IC50", "setting": "[16]", "value": "8.33 µM (active)"},
      {"measurement": "IC50", "setting": "[17]", "value": "> 80 µM (inactive)"},
      {"measurement": "EC50", "setting": "[18]", "value": "> 91.2 µM (inactive)"},
      {"measurement": "EC50", "setting": "[19]", "value": "> 10.1 µM (inactive)"}
    ]},
    {"smiles": "c1ccc2c(c1)nnn2-c1ncnc2sccc12", "values": [
      {"measurement": "CC50", "setting": "[20]", "value": "46.8 µM (active)"},
      {"measurement": "EC50", "setting": "[18]", "value": "> 91.2 µM (inactive)"},
      {"measurement": "EC50", "setting": "[19]", "value": "> 91.2 µM (inactive)"}
    ]},
    {"smiles": "COc1cc(NC(=O)COc2ccc([N+](=O)[O-])cc2)ccc1NC(=O)c1ccco1", "values": [
      {"measurement": "IC50", "setting": "[21]", "value": "33.6 µM (inactive)"}
    ]},
    {"smiles": "O=C(CCCNC(=O)c1ccc(Cl)cc1)Nc1ccc(Br)cc1", "values": [
      {"measurement": "IC50", "setting": "[6]", "value": "119 µM (inactive)"},
      {"measurement": "IC50", "setting": "[7]", "value": "7.11 µM (active)"},
      {"measurement": "IC50", "setting": "[8]", "value": "83.4 µM (inactive)"}
    ]},
    {"smiles": "Cc1occc1C(=O)Nc1ccc2c(c1)OCCO2", "values": [
      {"measurement": "AC50", "setting": "[11]", "value": "> 52 µM (inactive)"}
    ]}
  ]
}
